Tested on: A2780CP20 tumors
Experiment: Therapeutic efficacy in A2780CP20 tumor-bearing nude mice
Type: in vivo
Settings: siRNA-DOPC 5 μg siRNA/injection, CIS 160 μg/injection, i.p. once a week for 4 weeks
Description: c-MYC was overexpressed in cells with low c-MYC levels (A2780) (FIG. 16A). The rate of cell proliferation of these cells were higher compared with empty vectors (FIG. 16B). The effect of nanoliposomal-c-MYC-siRNA was tested on target depletion, and therapy efficacy. Nude mice were injected intraperitoneally (i.p.) with A2780CP20 cells. A nude mice-bearing tumors were injected i.p. with nanoliposomal siRNAs. Seven days post-injection, mice were sacrificed and the tumors were dissected. As shown is FIG. 18A, the anti-tumor effects of nanoliposomal-c-MYC-siRNA as compared to C-siRNA were tested in tumor-bearing mice. […] All nanoliposomal-c-MYC-siRNAs and CIS treatments were injected i.p. once a week for 4 weeks. In vitro experiments were repeated in HEYA8 ovarian cancer cells which express high c-MYC levels (FIG. 19A-19D). Additional liposomal c-MYc-siRNA formulation was performed (FIG. 20A-20D) and FIGS. 22 and 23). […]
As shown in FIG. 16A-16B the directed effect effects of c-MYC overexpression in ovarian cancer cells. […] Cell viability was calculated. […]
DOPC-PEG-cholesterol-based nanoliposomes were used for in vivo c-MYC-siRNA delivery. First, we assessed whether the c-MYC silencing in vivo. […] Tumor weight and number of nodules were assessed in five treatment groups (10 mice each): (a) C-siRNA, (b) cisplatin (CIS) alone, (c) c-MYC-siRNA, (d) C-siRNA plus CIS, and (e) c-MYC-siRNA plus CIS. […]

## N.N.[Cl][Pt][Cl] [CIS, cisplatin]
  tumor weight / tumor growth: did not induce a significant effect on tumor growth

Reference: patent US11090266B2, “Nanoliposomal c-MYC-siRNA inhibits in vivo tumor growth of cisplatin-resistant ovarian cancer” (priority 2014, dated 2021)
